This passage reports EC50, SI and CC50 results from patent publication US11179368B2, “Substituted indoline derivatives as dengue viral replication inhibitors” (JANSSEN PHARMACEUTICALS, INC., priority 2017, dated 2021).

The subject of one data set is DENV-2 16681 strain. As to the kind of experiment: DENV-2 antiviral assay (eGFP-labeled virus in Vero cells). The settings on record: for pEC50: DENV-2 16681 eGFP, Vero cells, MOI 0.5, 3 days; for SI: SI=CC50/EC50, DENV-2 antiviral assay. The data set is classed as cell-based, Dengue virus.
A further data set in a line: in vitro. Particulars: African green monkey.
In another data set the test system is Vero cells. The settings on record: African green monkey.
The test system of a further data set is DENV-4 strain H241. Put plainly: Tetravalent RT-qPCR assay, serotype 4. It counts as cell-based, Dengue virus. How it is done: (§1) The antiviral activity of the compounds of the invention was tested against DENV-1 strain TC974#666 (NCPV), DENV-2 strain 16681, DENV-3 strain H87 (NCPV) and DENV-4 strain H241 (NCPV) in a RT-qPCR assay. Therefore, Vero cells were infected with either DENV-1, or -2, or -3, or -4 in the presence or absence of test compounds. At day 3 post-infection, the cells were lysed and cell lysates were used to prepare cDNA of both a viral target (the 3′UTR of DENV; Table 2) and a cellular reference gene (1-actin, Table 2). Subsequently, a duplex real time PCR was performed on a Lightcycler480 instrument. The generated Cp value is inversely proportional to the amount of RNA expression of these targets. Inhibition of DENV replication by a test compound results in a shift of Cp's for the 3′UTR gene. On the other hand, if a test compound is toxic to the cells, a similar effect on β-actin expression will be observed. The comparative ΔΔCp method is used to calculate EC50, which is based on the relative gene expression of the target gene (3′UTR) normalized with the cellular housekeeping gene (β-actin). In addition, CC50 values are determined based on the Cp values acquired for the housekeeping gene β-actin.
(§2) The culture medium consisted of minimal essential medium supplemented with 2% of heat-inactivated fetal calf serum, 0.04% gentamycin (50 mg/mL) and 2 mM of L-glutamine. Vero cells, obtained from ECACC, were suspended in culture medium and 75 μL/well was added in 96-well plates (10000 cells/well), which already contain the antiviral compounds. […] In addition, each plate contains wells which are assigned as virus controls (containing cells and virus in the absence of compound) and cell controls (containing cells in the absence of virus and compound). Once the cells were added in the plates, the plates were incubated in a fully humidified incubator (37° C., 5% CO2) until the next day. Dengue viruses serotype-1, 2, 3 and 4 were diluted in order to obtain a Cp of ˜22-24 in the assay. Therefore, 25 μL of virus suspension was added to all the wells containing test compound and to the wells assigned as virus control. In parallel, 25 μL of culture medium was added to the cell controls. Next, the plates were incubated for 3 days in a fully humidified incubator (37° C., 5% CO2). After 3 days, the supernatant was removed from the wells and the cells were washed twice with ice-cold PBS (˜100 μL). The cell pellets within the 96-well plates were stored at −80° C. for at least 1 day. Next, RNA was extracted using the Cells-to-CT™ lysis kit, according to the manufacturer's guideline (Life Technologies). The cell lysates can be stored at −80° C. or immediately used in the reverse transcription step.
(§3) In preparation of the reverse transcription step, mix A (table 3A) was prepared and 7.57 μL/well was dispensed in a 96-well plate. After addition of 5 μL of the cell lysates, a five minute denaturation step at 75° C. was performed (table 3B). Afterwards, 7.43 μL of mix B was added (table 3C) and the reverse transcription step was initiated (table 3D) to generate cDNA.
(§4) Finally, a RT-qPCR mix was prepared, mix C (table 4A), and 22.02 μL/well was dispensed in 96-well LightCycler qPCR plates to which 3 μL of cDNA was added and the qPCR was performed according to the conditions in table 4B on a LightCycler 480.
(§5) Using the LightCycler software and an in-house LIMS system, dose response curves for each compound were calculated and the half maximal effective concentration (EC50) and the half maximal cytotoxic concentration (CC50) were determined (Tables 5-8).
A general note: In qPCR the cycle at which signal appears reflects the starting amount.

The subject of another data set is DENV-3 strain H87. Put plainly: Tetravalent RT-qPCR assay, serotype 3. The data set is classed as cell-based, Dengue virus. How it is done: as §1, §2, §3, §4, §5
For another data set, the system named is DENV-2 strain 16681. Put plainly: Tetravalent RT-qPCR assay, serotype 2. The data set is classed as cell-based, Dengue virus. As for the experimental part: as §1, §2, §3, §4, §5
Another data set relates to DENV-1 strain TC974#666. Put plainly: Tetravalent RT-qPCR assay, serotype 1. It counts as cell-based, Dengue virus. As for the experimental part:
as §1, §2, §3, §4, §5

The mark [1] stands for this setting: Dengue virus, DENV2, Vero, 72 h.

pEC50: −log10 of the molar value.

One may read the pEC50 as the negative decadic logarithm of the EC50, by convention in mol/L.

Compound `COc1cc(NC(C(=O)N2CCc3ccc(C(F)(F)F)cc32)c2ccc(F)cc2OCCO)cc(S(C)(=O)=O)c1` (racemic) [Compound 1, 2-(4-fluoro-2-(2-hydroxyethoxy)phenyl)-2-((3-methoxy-5-(methylsulfonyl)phenyl)amino)-1-(6-(trifluoromethyl)indolin-1-yl)ethan-1-one] gave a pEC50 in the data set on DENV-2 16681 strain (setting [1]) of 8.49. Besides, in the data set with DENV-2 16681 strain, the SI is reported as 4397. The CC50 in “in vitro” stood at 14000 nM.
Turning to `COc1cc(NC(C(=O)N2CCc3cc(OC)c(C(F)(F)F)cc32)c2ccc(F)cc2OCCO)cc(S(C)(=O)=O)c1` (racemic) [Compound 2, 2-(4-fluoro-2-(2-hydroxyethoxy)phenyl)-2-((3-methoxy-5-(methylsulfonyl)phenyl)amino)-1-(5-methoxy-6-(trifluoromethyl)indolin-1-yl)ethanone], the pEC50 in the data set on DENV-2 16681 strain (setting [1]) is 9.00. In the data set on DENV-2 16681 strain, this compound had an SI of 13700. Besides, in “in vitro”, the CC50 was found to be 12000 nM.
The compound `COc1cc(NC(C(=O)N2CCc3ccc(OC(F)(F)F)cc32)c2ccc(F)cc2OCCO)cc(S(C)(=O)=O)c1` (racemic) [Compound 3, 2-(4-fluoro-2-(2-hydroxyethoxy)phenyl)-2-((3-methoxy-5-(methylsulfonyl)phenyl)amino)-1-(6-(trifluoromethoxy)indolin-1-yl)ethanone] showed a negative-log EC50 (pEC50) in the data set on DENV-2 16681 strain (setting [1]) of 9.13. Further, the SI with DENV-2 16681 strain stood at 10700. Moreover, in the data set “in vitro”, the CC50 turned out to be 7900 nM.
In turn, `COc1cc(NC(C(=O)N2CCc3ccc(C(F)(F)F)cc32)c2ccc(Cl)cc2OCCO)cc(S(C)(=O)=O)c1` (racemic) [Compound 4, 2-(4-chloro-2-(2-hydroxyethoxy)phenyl)-2-((3-methoxy-5-(methylsulfonyl)phenyl)amino)-1-(6-(trifluoromethyl)indolin-1-yl)ethanone] showed a negative logarithm of the EC50 (pEC50) in the data set with DENV-2 16681 strain (setting [1]) of 9.18. Also, the SI with DENV-2 16681 strain is recorded as 11600. Also, in the data set “in vitro”, the CC50 stood at 7700 nM.
`COc1cc(NC(C(=O)N2CCc3cc(OC)c(C(F)(F)F)cc32)c2ccc(Cl)cc2OCCO)cc(S(C)(=O)=O)c1` (racemic) [Compound 5, 2-(4-chloro-2-(2-hydroxyethoxy)phenyl)-2-((3-methoxy-5-(methylsulfonyl)phenyl)amino)-1-(5-methoxy-6-(trifluoromethyl)indolin-1-yl)ethanone] gave a pEC50 in the data set with DENV-2 16681 strain (setting [1]) of 9.15. In addition, the SI with DENV-2 16681 strain was determined as 15700. In “in vitro”, this compound displayed a CC50 of 11000 nM.
`COc1cc(NC(C(=O)N2CCc3ccc(OC(F)(F)F)cc32)c2ccc(Cl)cc2OCCO)cc(S(C)(=O)=O)c1` (racemic) [Compound 6, 2-(4-chloro-2-(2-hydroxyethoxy)phenyl)-2-((3-methoxy-5-(methylsulfonyl)phenyl)amino)-1-(6-(trifluoromethoxy)indolin-1-yl)ethanone] had a negative-log EC50 (pEC50) in the data set with DENV-2 16681 strain (setting [1]) of 9.37. Further, in the data set with DENV-2 16681 strain, the SI is given as 7070. Also, in the data set “in vitro”, the CC50 stood at 3600 nM.
Regarding `COc1cc(NC(C(=O)N2CCc3ccc(C(F)(F)F)cc32)c2ccc(Cl)cc2OCCCC(=O)O)cc(S(C)(=O)=O)c1` (racemic) [Compound 7, 4-(5-chloro-2-(1-((3-methoxy-5-(methylsulfonyl)phenyl)amino)-2-oxo-2-(6-(trifluoromethyl)indolin-1-yl)ethyl)phenoxy)butanoic acid], in the data set on DENV-2 16681 strain (setting [1]), the pEC50 was 9.24. In the data set with DENV-2 16681 strain, the SI stood at 21800. In the data set “in vitro”, this compound yielded a CC50 of 13000 nM.
For `COc1cc(NC(C(=O)N2CCc3cc(OC)c(C(F)(F)F)cc32)c2ccc(Cl)cc2OCCCC(=O)O)cc(S(C)(=O)=O)c1` (racemic) [Compound 8, 4-(5-chloro-2-(1-((3-methoxy-5-(methylsulfonyl)phenyl)amino)-2-(5-methoxy-6-(trifluoromethyl)indolin-1-yl)-2-oxoethyl)phenoxy)butanoic acid], in that order: 8.72, 7460 and 14000 nM.
The matching figures for `COc1cc(NC(C(=O)N2CCc3ccc(OC(F)(F)F)cc32)c2ccc(Cl)cc2OCCCC(=O)O)cc(S(C)(=O)=O)c1` (racemic) [Compound 9, 4-(5-chloro-2-(1-((3-methoxy-5-(methylsulfonyl)phenyl)amino)-2-oxo-2-(6-(trifluoromethoxy)indolin-1-yl)ethyl)phenoxy)butanoic acid]: 9.51, 40200 and 12000 nM.
In the case of `COc1cc(NC(C(=O)N2CCc3ccc(C(F)(F)F)cc32)c2ccc(F)cc2OCCO)cc(S(C)(=O)=O)c1` (single isomer, unassigned) [Compound 1A], in the data set with DENV-2 16681 strain, the pEC50 is 5.62 and the SI came out at 4.8. The same compound returned a CC50 with Vero cells of 12000 nM.
Regarding `COc1cc(NC(C(=O)N2CCc3cc(OC)c(C(F)(F)F)cc32)c2ccc(F)cc2OCCO)cc(S(C)(=O)=O)c1` (single isomer, unassigned) [Compound 2A], the pEC50 is 7.00 with DENV-4 strain H241 (Dengue virus, DENV4, 72 h, RT-qPCR serotype 4 H241, Vero cells, day 3, read-out: EC50); 7.70 in the data set on DENV-3 strain H87 (Dengue virus, DENV3, 72 h, RT-qPCR serotype 3 H87, Vero cells, day 3); 8.89 in the data set on DENV-2 strain 16681 (Dengue virus, DENV2, 72 h, RT-qPCR serotype 2 16681, Vero cells, day 3); 9.03 in the data set on DENV-2 16681 strain; 8.34 in the data set with DENV-1 strain TC974#666 (Dengue virus, DENV1, 72 h, RT-qPCR serotype 1 TC974#666, Vero cells, day 3). Besides, the SI with DENV-4 strain H241 (RT-qPCR serotype 4 H241) is on record as 35; in the data set with DENV-3 strain H87 (RT-qPCR serotype 3 H87) it was more than 157; in the data set with DENV-2 strain 16681 (RT-qPCR serotype 2 16681), 4910; with DENV-2 16681 strain, 16400; in the data set with DENV-1 strain TC974#666 (RT-qPCR serotype 1 TC974#666), more than 981. This compound also returned a CC50 in the data set “in vitro” of 9600 nM.
For the compound `COc1cc(NC(C(=O)N2CCc3cc(OC)c(C(F)(F)F)cc32)c2ccc(F)cc2OCCO)cc(S(C)(=O)=O)c1` (single isomer, unassigned) [Compound 2B], in the data set on DENV-2 16681 strain, the negative-log EC50 (pEC50) was 6.77 and the SI was determined as 105. The compound also came in with a CC50 in the data set with Vero cells of 18000 nM.
In the data set with DENV-2 16681 strain, `COc1cc(NC(C(=O)N2CCc3ccc(OC(F)(F)F)cc32)c2ccc(F)cc2OCCO)cc(S(C)(=O)=O)c1` (single isomer, unassigned) [Compound 3A] showed a pEC50 of 6.24 and an SI of 19. Moreover, in “in vitro”, the CC50 came to 11000 nM.
For `COc1cc(NC(C(=O)N2CCc3cc(OC)c(C(F)(F)F)cc32)c2ccc(Cl)cc2OCCO)cc(S(C)(=O)=O)c1` (single isomer, unassigned) [Compound 5A], in that order: 7.12, 210 and 16000 nM.
For `COc1cc(NC(C(=O)N2CCc3ccc(C(F)(F)F)cc32)c2ccc(Cl)cc2OCCCC(=O)O)cc(S(C)(=O)=O)c1` (single isomer, unassigned) [Compound 7A], in that order: 7.16, 165 and 11000 nM.
Turning to `COc1cc(NC(C(=O)N2CCc3cc(OC)c(C(F)(F)F)cc32)c2ccc(Cl)cc2OCCCC(=O)O)cc(S(C)(=O)=O)c1` (single isomer, unassigned) [Compound 8A], in the data set on DENV-2 16681 strain, the negative logarithm of the EC50 (pEC50) is 7.02 and the SI is 126. This compound displayed a CC50 in the data set “in vitro” of 12000 nM.
In the case of `COc1cc(NC(C(=O)N2CCc3ccc(OC(F)(F)F)cc32)c2ccc(Cl)cc2OCCCC(=O)O)cc(S(C)(=O)=O)c1` (single isomer, unassigned) [Compound 9A], in the data set with DENV-2 16681 strain, the negative logarithm of the EC50 (pEC50) was 6.92 and the SI was found to be 93. The same compound had a CC50 in “in vitro” of 12000 nM.
